Data: ChEMBL document CHEMBL1124039, “Angiotensin-converting enzyme inhibitors. 2. Perhydroazepin-2-one derivatives” (J Med Chem, 1988)

Each compound was assayed against T1, Angiotensin-converting enzyme (Oryctolagus cuniculus, UniProt P12822) (assay: Concentration required for 50% inhibition of rabbit lung Angiotensin I converting enzyme with 5 mM hippuryl-histidyl-leucine as substrate).
T1 sequence (P12822 whole entry): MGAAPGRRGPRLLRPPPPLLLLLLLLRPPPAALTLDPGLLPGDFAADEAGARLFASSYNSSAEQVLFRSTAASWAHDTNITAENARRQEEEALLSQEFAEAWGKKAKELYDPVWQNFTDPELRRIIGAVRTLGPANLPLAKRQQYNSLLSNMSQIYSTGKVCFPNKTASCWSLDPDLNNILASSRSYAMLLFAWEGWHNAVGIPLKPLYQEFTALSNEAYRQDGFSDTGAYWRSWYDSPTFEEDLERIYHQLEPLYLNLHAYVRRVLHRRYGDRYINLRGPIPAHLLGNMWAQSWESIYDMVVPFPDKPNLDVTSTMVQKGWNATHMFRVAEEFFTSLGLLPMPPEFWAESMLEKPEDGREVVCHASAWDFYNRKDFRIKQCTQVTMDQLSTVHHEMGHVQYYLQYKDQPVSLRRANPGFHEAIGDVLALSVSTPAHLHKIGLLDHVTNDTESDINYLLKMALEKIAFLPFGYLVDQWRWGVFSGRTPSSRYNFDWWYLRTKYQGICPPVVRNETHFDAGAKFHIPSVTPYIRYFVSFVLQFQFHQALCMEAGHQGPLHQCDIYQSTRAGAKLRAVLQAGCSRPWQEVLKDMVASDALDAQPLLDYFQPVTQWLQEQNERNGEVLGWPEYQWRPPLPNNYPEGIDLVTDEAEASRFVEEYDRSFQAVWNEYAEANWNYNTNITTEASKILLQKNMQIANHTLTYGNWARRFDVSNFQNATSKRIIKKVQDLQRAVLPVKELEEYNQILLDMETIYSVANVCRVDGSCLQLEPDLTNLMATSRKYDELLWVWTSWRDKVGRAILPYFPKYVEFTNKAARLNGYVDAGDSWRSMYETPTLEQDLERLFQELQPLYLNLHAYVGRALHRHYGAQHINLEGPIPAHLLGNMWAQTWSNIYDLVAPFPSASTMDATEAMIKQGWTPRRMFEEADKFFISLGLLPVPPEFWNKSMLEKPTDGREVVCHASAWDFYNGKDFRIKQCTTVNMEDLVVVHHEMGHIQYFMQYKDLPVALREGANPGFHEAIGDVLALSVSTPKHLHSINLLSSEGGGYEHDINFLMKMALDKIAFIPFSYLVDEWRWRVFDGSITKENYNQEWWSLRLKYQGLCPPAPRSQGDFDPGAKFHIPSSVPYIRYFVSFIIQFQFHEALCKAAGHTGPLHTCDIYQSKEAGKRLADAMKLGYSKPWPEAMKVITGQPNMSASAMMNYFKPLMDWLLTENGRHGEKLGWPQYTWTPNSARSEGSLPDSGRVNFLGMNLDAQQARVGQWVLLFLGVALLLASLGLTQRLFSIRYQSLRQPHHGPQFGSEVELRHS

Row | IC50 [nM] | Structure (SMILES)
1 | 16.2 | O=C(O)CN1C(=O)[C@@H](N[C@@H](CCc2ccccc2)C(=O)O)CCC[C@@H]1c1ccccc1
2 | 4.3 | O=C(O)CN1C[C@H](c2ccccc2)CC[C@H](N[C@@H](CCc2ccccc2)C(=O)O)C1=O
3 | 3.6 | O=C(O)CN1C(=O)[C@@H](N[C@@H](CCc2ccccc2)C(=O)O)CCC[C@H]1c1ccccc1
4 | 3.1 | O=C(O)CN1C[C@@H](c2ccccc2)CC[C@H](N[C@@H](CCc2ccccc2)C(=O)O)C1=O
